Experimental data: patent US20230233559A1, “COMBINATION OF ZIDOVUDINE AND FLUOROQUINOLONE ANTIBIOTIC” (HELPERBY THERAPEUTICS LIMITED, priority 2019, published 2023)

Assays:
Type in all cases: cell-based
Details in all cases: fluoroquinolone alone
[1] = tested on: BAA2471 NDM-1 Escherichia coli; test: Chequerboard MIC, log phase BAA2471
Protocol: (§1) The chequerboard method used in Example 1 followed the protocols detailed in Antimicrob Chemo (2013) 68, 374-384. Zidovudine and ciprofloxacin were obtained from commercially available sources. The bacteria used were BAA2469 NDM-1 Escherichia coli, BAA2470 NDM-1 Klebsiella pneumoniae, BAA2471 NDM-1 Escherichia coli, BAA2472 NDM-1 Klebsiella pneumoniae, and NCTC13443 NDM-1 Klebsiella pneumoniae. All strains were obtained from a commercial source and log phase growth of the bacteria was carried out using methods known in the art.
(§2) The effects of the combination of the present invention were examined by calculating the fractional inhibitory concentration index (FICI) of each combination, as follows:
(§3) (MIC of drug A, tested in combination)/(MIC of drug A, tested alone)+(MIC of drug B, tested in combination)/(MIC of drug B, tested alone).
(§4) The interaction of the combination was defined as showing synergy if the FICI was ≤0.5, no interaction if the FICI was >0.5 but <4.0 and antagonism if the FICI was >4.0.
(§5) The method and bacterial strains were identical to Example 1. Zidovudine and levofloxacin were obtained from commercially available sources. The effects of the combination of the present invention were examined by calculating the MIC for each drug alone and in combination in the same manner as Example 1.
as §5, with “moxifloxacin” for “levofloxacin”

[2] = tested on: BAA2470 NDM-1 Klebsiella pneumoniae; test: Chequerboard MIC, log phase BAA2470
Protocol: as §1, §2, §3, §4, §5
as §5, with “moxifloxacin” for “levofloxacin”

[3] = tested on: BAA2472 NDM-1 Klebsiella pneumoniae; test: Chequerboard MIC, log phase BAA2472
Protocol: as §1, §2, §3, §4, §5
as §5, with “moxifloxacin” for “levofloxacin”

[4] = tested on: NCTC13443 NDM-1 Klebsiella pneumoniae; test: Chequerboard MIC, log phase NCTC13443
Protocol: as §1, §2, §3, §4, §5
as §5, with “moxifloxacin” for “levofloxacin”

[5] = tested on: BAA2469 NDM-1 Escherichia coli; test: Chequerboard MIC, log phase BAA2469
Protocol: as §1, §2, §3, §4, §5
as §5, with “moxifloxacin” for “levofloxacin”

MIC [1] [µg/mL] | MIC [2] [µg/mL] | MIC [3] [µg/mL] | MIC [4] [µg/mL] | MIC [5] [µg/mL] | Compound
128 | 32 | 128 | 128 | 16 | COc1c(N2C[C@@H]3CCCN[C@@H]3C2)c(F)cc2c(=O)c(C(=O)O)cn(C3CC3)c12 [Moxifloxacin, 7-[(4aS,7aS)-1,2,3,4,4a,5,7,7a-octahydropyrrolo[3,4-b]pyridin-6-yl]-1-cyclopropyl-6-fluoro-8-methoxy-4-oxoquinoline-3-carboxylic acid]
> 64 | 8 | 64 | 64 | 64 | O=C(O)c1cn(C2CC2)c2cc(N3CCNCC3)c(F)cc2c1=O [Ciprofloxacin, 1-cyclopropyl-6-fluoro-1,4-dihydro-4-oxo-7-(1-piperazinyl)-3-quinolinecarboxylic acid]
32 | 8 | 32 | 32 | 8 | C[C@H]1COc2c(N3CCN(C)CC3)c(F)cc3c(=O)c(C(=O)O)cn1c23 [Levofloxacin, (2S)-7-fluoro-2-methyl-6-(4-methylpiperazin-1-yl)-10-oxo-4-oxa-1-azatricyclo[7.3.1.0^5,13]trideca-5(13),6,8,11-tetraene-11-carboxylic acid]
